Data taken from patent US5096884A, “Glidobactin PF-1 peptide antibiotics” (Bristol-Myers Squibb Company, priority 1990, dated 1992).
≈ marks a conversion by molar mass, not a printed value. Read-outs that look alike come from different tables or passages of the source.

Tests used:
[1] = tested on: protein synthesis in L1210 murine leukemia cells; assay: Inhibition of macromolecule synthesis, 3H-leucine incorporation; type: cell-based; conditions: for effect on protein synthesis (in words) / IC50, Protein synthesis: L1210 cells; for IC50, Protein synthesis: 3H-leucine, 4 hrs
Description: (§1) Inhibitory effects of glidobactins A and PF-1 on macromolecule biosynthesis (DNA, RNA, and protein) were determined in cultured L1210 murine leukemia cells. The cells (5×10^5 cells/mL) were incubated with test compounds at 37° C. for 15 min and further incubated for 4 hrs after the addition of labeled precursor, ^3 H-thymidine, ^14 C-uridine, or ^3 H-leucine into the cultured mixture. After washing with chilled 5% trichloroacetic acid solution, the radioactivity incorporated into the acid-insoluble fraction of the cells was determined by a liquid scintillation counter.

[2] = tested on: DNA synthesis in L1210 murine leukemia cells; assay: Inhibition of macromolecule synthesis, 3H-thymidine incorporation; type: cell-based; conditions: for IC50, DNA synthesis: L1210 cells, 3H-thymidine, 4 hrs; for inhibitory effect on DNA synthesis (in words): at 100 μg/mL, the highest concentration tested
Description: as §1

[3] = tested on: B16-F10 (murine melanoma) cells; type: cell-based; conditions: for IC50: B16-F10 cells, 72 hrs
Description: (§2) Glidobactin PF-1 and glidobactin A were tested for in vitro cytotoxicity against murine tumor cell lines and for in vivo antitumor activity in mice. Mitomycin C was used as a reference compound in both in vitro and in vivo experiments. B16-F10 (murine melanoma) cells were grown to the logarithmic phase in an enriched Eagle minimum essential medium supplemented with fetal calf serum (FCS, 10%) and kanamycin (60 μg/ml). P388 (murine lymphocytic leukemia) cells were in RPMI1640 medium supplemented with FCS (10%), penicillin (100 U/ml), and streptomycin (100 μg/ml). B16-F10 and P388 cells were harvested and implanted into wells of a 96-well (for B16-F10 cells) and a 24-well (for P388 cells) tissue culture plate with test materials at the inoculum sizes of 3×10^4 and 2×10^4 cells/mL, respectively. They were incubated at 37° C. in a humidified atmosphere of 5% CO2 and 95% air for 72 hrs. The cytotoxicity against B16-F10 cells was colorimetrically determined at 540 nm after staining viable cells with 0.006% neutral red solution. As for P388 cells, the number of viable cells was determined by a Coulter counter.

[4] = tested on: P388 (murine lymphocytic leukemia) cells; type: cell-based; conditions: for IC50: P388 cells, 72 hrs
Description: as §2

P388 Leukemia (ip) = conditions: for T/C % of MST: ip, QD1→9, ≥125% significant; for maximum T/C value: P388 leukemia, ip daily for 9 days
Description: (§3) In vivo antitumor activity of glidobactin PF-1 was determined in experimental mouse tumor systems. Female CDF1 and male BDF1 mice were intraperitoneally inoculated with 0.4 mL of diluted ascitic fluid containing 10^6 lymphocytic leukemia P388 cells and 0.5 mL of 10% melanotic melanoma B16 brei, respectively. Test compounds were intraperitoneally administered daily for 9 days starting from 1 day after the tumor implantation.

B16 Melanoma (ip) = conditions: for T/C % of MST: ip, QD1→9, ≥125% significant; for antitumor activity against ip-B16 melanoma (in words): at the doses tested
Description: as §3

[5] = tested on: RNA synthesis in L1210 murine leukemia cells; assay: Inhibition of macromolecule synthesis, 14C-uridine incorporation; type: cell-based; conditions: for IC50, RNA synthesis: L1210 cells, 14C-uridine, 4 hrs; for inhibitory effect on RNA synthesis (in words): at 100 μg/mL, the highest concentration tested
Description: as §1

Piricularia oryzae D9 = conditions: Sabouraud dextrose agar; inoculum 10^5-10^7
Mucor spinosus IFO 5317 = assay: MIC by serial agar dilution method; type: cell-based; conditions: Sabouraud dextrose agar; inoculum 10^5-10^7
Escherichia coli NIHJ = assay: MIC by serial agar dilution method; type: cell-based; conditions: Nutrient agar; inoculum 10^4 CFU/mL
Candida albicans A9540 = assay: MIC by serial agar dilution method; type: cell-based; conditions: Sabouraud dextrose agar; inoculum 10^5-10^7
[6] = tested on: Cryptococcus neoformans D49; assay: MIC by serial agar dilution method; type: cell-based; conditions: Sabouraud dextrose agar; inoculum 10^5-10^7
[7] = tested on: Pseudomonas aeruginosa A9930; assay: MIC by serial agar dilution method; type: cell-based; conditions: Nutrient agar; inoculum 10^4 CFU/mL
[8] = tested on: Fusarium moniliforme A2284; assay: MIC by serial agar dilution method; type: cell-based; conditions: Sabouraud dextrose agar; inoculum 10^5-10^7
[9] = tested on: Trichophyton mentagrophytes D155; assay: MIC by serial agar dilution method; type: cell-based; conditions: Sabouraud dextrose agar; inoculum 10^5-10^7
[10] = tested on: Klebsiella pneumoniae D 11; assay: MIC by serial agar dilution method; type: cell-based; conditions: Nutrient agar; inoculum 10^4 CFU/mL
[11] = tested on: Aspergillus fumigatus IAM 2530; assay: MIC by serial agar dilution method; type: cell-based; conditions: Sabouraud dextrose agar; inoculum 10^5-10^7
[12] = tested on: Blastomyces dermatitidis IFO 8144; assay: MIC by serial agar dilution method; type: cell-based; conditions: Sabouraud dextrose agar; inoculum 10^5-10^7
[13] = tested on: Sporothrix schenckii IFO 8158; assay: MIC by serial agar dilution method; type: cell-based; conditions: Sabouraud dextrose agar; inoculum 10^5-10^7
[14] = tested on: Bacillus subtilis PCI 219; assay: MIC by serial agar dilution method; type: cell-based; conditions: Nutrient agar; inoculum 10^4 CFU/mL
[15] = tested on: Streptoccoccus faecalis A9612; assay: MIC by serial agar dilution method; type: cell-based; conditions: Nutrient agar; inoculum 10^4 CFU/mL
[16] = tested on: Staphyloccoccus aureus 209P; assay: MIC by serial agar dilution method; type: cell-based; conditions: Nutrient agar; inoculum 10^4 CFU/mL
[17] = tested on: Candida albicans IAM 4888; assay: MIC by serial agar dilution method; type: cell-based; conditions: Sabouraud dextrose agar; inoculum 10^5-10^7
bacteria tested = assay: In vitro antibacterial activity; type: cell-based; conditions: at 100 μg/ml
Description: (§4) The minimum inhibitory concentrations (MIC's) of glidobactin PF-1 were determined for various microorganisms by a serial agar dilution method. Nutrient agar (Eiken) was used for bacteria and Sabouraud dextrose agar (Difco) for fungi. The inoculum size was adjusted to 10^4 CFU/mL for bacteria and 10^5 -10^7 for fungi. Invitro antibacterial and antifungal activities of glidobactin PF-1 are shown in Table 3 together with the activities found with glidobactin C.

fungi = assay: In vitro antifungal activity; type: cell-based
Description: as §4

SMILES: CCCCCCC/C=C/C=C/C(=O)N[C@H](C(=O)N[C@H]1C[C@@H](O)CCNC(=O)/C=C/[C@H](C)NC1=O)[C@@H](C)O [Glidobactin A, glidobactin A]
- effect on protein synthesis (in words) [1]: inhibited protein synthesis
- IC50, Protein synthesis [1]: 0.03 µg/mL (≈ 0.0576 µM)
- IC50, DNA synthesis [2]: > 100 µg/mL
- inhibitory effect on DNA synthesis (in words) [2]: no significant inhibitory effect
- cytotoxicity (in words) [3]: potent cytotoxicity
- IC50 [3]: 0.04 µg/mL (≈ 0.0768 µM)
- cytotoxicity (in words) [4]: potent cytotoxicity
- IC50 [4]: 8 ng/mL (≈ 0.0154 µM)
- T/C % of MST (P388 Leukemia (ip); P388, 0.031 mg/kg/day): 100%
- T/C % of MST (P388 Leukemia (ip); P388, 0.063 mg/kg/day): 110%
- T/C % of MST (P388 Leukemia (ip); P388, 0.13 mg/kg/day): 130%
- T/C % of MST (P388 Leukemia (ip); P388, 0.25 mg/kg/day): 150%
- T/C % of MST (P388 Leukemia (ip); P388, 0.5 mg/kg/day): 155%
- T/C % of MST (P388 Leukemia (ip); P388, 1 mg/kg/day): 190%
- maximum T/C value (P388 Leukemia (ip)): 190%
- T/C % of MST (B16 Melanoma (ip); B16, 0.13 mg/kg/day): 97%
- T/C % of MST (B16 Melanoma (ip); B16, 0.25 mg/kg/day): 100%
- T/C % of MST (B16 Melanoma (ip); B16, 0.5 mg/kg/day): 113%
- T/C % of MST (B16 Melanoma (ip); B16, 1 mg/kg/day): 116%
- antitumor activity against ip-B16 melanoma (in words) (B16 Melanoma (ip)): no significant antitumor activity
- IC50, RNA synthesis [5]: > 100 µg/mL
- inhibitory effect on RNA synthesis (in words) [5]: no significant inhibitory effect

SMILES: CCCCCCCCC/C=C/C=C/C(=O)N[C@H](C(=O)N[C@H]1C[C@@H](O)CCNC(=O)/C=C\[C@H](C)NC1=O)[C@@H](C)O [Glidobactin C, glidobactin C]
- MIC (Piricularia oryzae D9): 6.3 µg/mL (≈ 11.5 µM)
- MIC (Mucor spinosus IFO 5317): 0.8 µg/mL (≈ 1.46 µM)
- MIC (Escherichia coli NIHJ): > 100 µg/mL
- MIC (Candida albicans A9540): 0.2 µg/mL (≈ 0.364 µM)
- MIC [6]: 0.8 µg/mL (≈ 1.46 µM)
- MIC [7]: > 100 µg/mL
- MIC [8]: > 50 µg/mL
- MIC [9]: 0.8 µg/mL (≈ 1.46 µM)
- MIC [10]: > 100 µg/mL
- MIC [11]: 1.6 µg/mL (≈ 2.92 µM)
- MIC [12]: 3.1 µg/mL (≈ 5.65 µM)
- MIC [13]: > 50 µg/mL
- MIC [14]: > 100 µg/mL
- MIC [15]: > 100 µg/mL
- MIC [16]: > 100 µg/mL
- MIC [17]: 0.4 µg/mL (≈ 0.729 µM)

SMILES: CCC=CCC=CCCC=CC=CC(=O)NC(C(=O)NC1CC(O)CCNC(=O)C=CC(C)NC1=O)C(C)O (stereo not shown) [Glidobactin PF-1, glidobactin PF-1]
- MIC (Piricularia oryzae D9): 12.5 µg/mL (≈ 22.9 µM)
- MIC (Mucor spinosus IFO 5317): 3.1 µg/mL (≈ 5.69 µM)
- MIC (Escherichia coli NIHJ): > 100 µg/mL
- MIC (Candida albicans A9540): 6.3 µg/mL (≈ 11.6 µM)
- MIC [6]: 25 µg/mL (≈ 45.9 µM)
- MIC [7]: > 100 µg/mL
- effect on protein synthesis (in words) [1]: inhibited protein synthesis
- IC50, Protein synthesis [1]: 0.07 µg/mL (≈ 0.129 µM)
- inhibitory activity on protein synthesis relative to glidobactin A ([1]; relative to glidobactin A): approximately half
- MIC [8]: > 50 µg/mL
- IC50, DNA synthesis [2]: > 100 µg/mL
- inhibitory effect on DNA synthesis (in words) [2]: no significant inhibitory effect
- solubility (in words) (in methanol, ethanol, n-butanol, and dimethyl sulfoxide): soluble
- solubility (in words) (in n-hexane and water): insoluble
- inhibition of the bacteria tested (in words) (bacteria tested): did not inhibit
- MIC [9]: 12.5 µg/mL (≈ 22.9 µM)
- MIC [10]: > 100 µg/mL
- cytotoxicity (in words) [3]: potent cytotoxicity
- IC50 [3]: 0.07 µg/mL (≈ 0.129 µM)
- cytotoxicity (in words) [4]: potent cytotoxicity
- IC50 [4]: 10 ng/mL (≈ 0.0184 µM)
- MIC [11]: 12.5 µg/mL (≈ 22.9 µM)
- T/C % of MST (P388 Leukemia (ip); P388, 0.016 mg/kg/day): 118%
- T/C % of MST (P388 Leukemia (ip); P388, 0.031 mg/kg/day): 129%
- T/C % of MST (P388 Leukemia (ip); P388, 0.063 mg/kg/day): 133%
- T/C % of MST (P388 Leukemia (ip); P388, 0.13 mg/kg/day): 160%
- T/C % of MST (P388 Leukemia (ip); P388, 0.25 mg/kg/day): 170%
- T/C % of MST (P388 Leukemia (ip); P388, 0.5 mg/kg/day): 174%
- T/C % of MST (P388 Leukemia (ip); P388, 1 mg/kg/day): 130%
- maximum T/C value (P388 Leukemia (ip)): 174%
- potency against P388 relative to glidobactin A (P388 Leukemia (ip); in vivo P388, relative to glidobactin A): approximately 4 times
- T/C % of MST (B16 Melanoma (ip); B16, 0.13 mg/kg/day): 103%
- T/C % of MST (B16 Melanoma (ip); B16, 0.25 mg/kg/day): 118%
- T/C % of MST (B16 Melanoma (ip); B16, 0.5 mg/kg/day): 113%
- T/C % of MST (B16 Melanoma (ip); B16, 1 mg/kg/day): 111%
- antitumor activity against ip-B16 melanoma (in words) (B16 Melanoma (ip)): no significant antitumor activity
- IC50, RNA synthesis [5]: > 100 µg/mL
- inhibitory effect on RNA synthesis (in words) [5]: no significant inhibitory effect
- MIC [12]: 12.5 µg/mL (≈ 22.9 µM)
- MIC [13]: > 50 µg/mL
- MIC [14]: > 100 µg/mL
- activity against fungi (in words) (fungi): moderate activity
- intrinsic antifungal activity compared with glidobactin C (in words) (fungi; relative to glidobactin C): considerably weaker
- MIC [15]: > 100 µg/mL
- MIC [16]: > 100 µg/mL
- MIC [17]: 12.5 µg/mL (≈ 22.9 µM)

SMILES: CO[C@@]12[C@H](COC(N)=O)C3=C(C(=O)C(C)=C(N)C3=O)N1C[C@@H]1N[C@@H]12 [Mitomycin C]
- IC50, Protein synthesis [1]: > 100 µg/mL
- IC50, DNA synthesis [2]: 1.7 µg/mL (≈ 5.08 µM)
- IC50 [3]: 0.50 µg/mL (≈ 1.5 µM)
- T/C % of MST (P388 Leukemia (ip); P388, 0.031 mg/kg/day): 115%
- T/C % of MST (P388 Leukemia (ip); P388, 0.063 mg/kg/day): 140%
- T/C % of MST (P388 Leukemia (ip); P388, 0.13 mg/kg/day): 145%
- T/C % of MST (P388 Leukemia (ip); P388, 0.25 mg/kg/day): 170%
- T/C % of MST (P388 Leukemia (ip); P388, 0.5 mg/kg/day): 190%
- T/C % of MST (P388 Leukemia (ip); P388, 1 mg/kg/day): 225%
- IC50, RNA synthesis [5]: > 100 µg/mL
